Measured values: EPA's CvTdb concentration-time database

Legend:
Rat [1] = experiment: concentration in plasma after dosing
Rat [2] = experiment: concentration in liver after dosing; details: 20 mg/kg, iv
Rat [3] = experiment: concentration in liver after dosing; details: 10 min; dosed: Thiodiglycolic Acid; 20 mg/kg; iv; Female; Harlan Sprague Dawley
Rat [4] = experiment: concentration in thymus after dosing; details: 4 h; dosed: Thiodiglycolic Acid; 20 mg/kg; iv; Female; Harlan Sprague Dawley
Rat [5] = experiment: concentration in heart after dosing; details: 20 mg/kg, iv
Rat [6] = experiment: concentration in thymus after dosing; details: 20 mg/kg, iv
Rat [7] = experiment: concentration in heart after dosing; details: 10 min; dosed: Thiodiglycolic Acid; 20 mg/kg; iv; Female; Harlan Sprague Dawley
Rat [8] = experiment: concentration in heart after dosing; details: 5 h; dosed: Bis 2-Chloroethoxy Methane; 20 mg/kg; iv; Male; F344

O=C(O)CSCC(=O)O [Thiodiglycolic Acid]
concentration in plasma [ng/mL], Rat [1], dosed: Thiodiglycolic Acid, 20 mg/kg, iv
Details	Female	Male
1 h, Harlan Sprague Dawley	8500	1340
2 h, Harlan Sprague Dawley	1220	751
3 h, Harlan Sprague Dawley	520	553
4 h, Harlan Sprague Dawley	228	332
5.333 h, Harlan Sprague Dawley	302	247
8 h, Harlan Sprague Dawley	200	–
10 h, F344	–	215
10 min, F344	–	25600
10 min, Harlan Sprague Dawley	37500	–
20 min, F344	6700	–
20 min, Harlan Sprague Dawley	9230	–
40 min, Harlan Sprague Dawley	3520	1820

dosed: Thiodiglycolic Acid
Details	concentration in heart, Rat [5] [ng/g]	concentration in liver, Rat [2] [ng/g]	concentration in thymus, Rat [6] [ng/g]
1 h, Female, Harlan Sprague Dawley	1670	71500	2560
1 h, Male, Harlan Sprague Dawley	1760	107000	2750
2 h, Female, Harlan Sprague Dawley	1120	21800	1650
2 h, Male, Harlan Sprague Dawley	1340	108000	1940
3 h, Female, Harlan Sprague Dawley	562	9460	1060
3 h, Male, Harlan Sprague Dawley	1040	50900	1370
4 h, Female, Harlan Sprague Dawley	414	2680	708
4 h, Male, Harlan Sprague Dawley	476	45400	939
5.333 h, Female, Harlan Sprague Dawley	232	2410	399
5.333 h, Male, Harlan Sprague Dawley	388	29400	715
6.667 h, Female, Harlan Sprague Dawley	238	2220	236
8 h, Female, Harlan Sprague Dawley	328	246	487
10 h, Female, Harlan Sprague Dawley	–	7570	215
10 h, Male, F344	362	4770	358
10 min, Female, Harlan Sprague Dawley	8480	75000	8190
10 min, Male, F344	6870	148000	10000
20 min, Female, F344	4000	198000	3960
20 min, Female, Harlan Sprague Dawley	4770	11000	4460
40 min, Female, Harlan Sprague Dawley	2650	49400	3000
40 min, Male, Harlan Sprague Dawley	2660	190000	2890

Details	concentration in heart [ng/g]	concentration in liver [ng/g]	concentration in thymus [ng/g]
Rat [3]	–	70700	–
Rat [4]	–	–	657
Rat [7]	9540	–	–

ClCCOCOCCCl [Bis 2-Chloroethoxy Methane]
Details	concentration in heart [ng/g]
Rat [8]	42.1

concentration in plasma [ng/mL], Rat [1], dosed: Bis 2-Chloroethoxy Methane, iv
Details	Female	Male
1 h, 20 mg/kg, F344	1380	1400
1 h, 40 mg/kg, Harlan Sprague Dawley	–	3850
2 h, 20 mg/kg, F344	202	336
2 h, 40 mg/kg, Harlan Sprague Dawley	–	648
3 h, 20 mg/kg, F344	82.8	119
3 h, 40 mg/kg, Harlan Sprague Dawley	–	333
4 h, 20 mg/kg, F344	79	117
4 h, 40 mg/kg, Harlan Sprague Dawley	–	139
5 h, 20 mg/kg, F344	25.4	32.6
5.333 h, 40 mg/kg, Harlan Sprague Dawley	–	74.6
6 h, 20 mg/kg, F344	10.2	28
6.667 h, 40 mg/kg, Harlan Sprague Dawley	–	45.9
7 h, 20 mg/kg, F344	–	16
8 h, 20 mg/kg, Harlan Sprague-Dawley	11.2	–
8 h, 40 mg/kg, Harlan Sprague Dawley	–	15.7
10 min, 20 mg/kg, F344	9580	10400
10 min, 40 mg/kg, Harlan Sprague Dawley	–	23400
20 min, 20 mg/kg, F344	5400	4840
20 min, 40 mg/kg, Harlan Sprague Dawley	–	10200
40 min, 20 mg/kg, F344	2110	2640
40 min, 40 mg/kg, Harlan Sprague Dawley	–	7610

dosed: Bis 2-Chloroethoxy Methane
Details	concentration in heart, Rat [5] [ng/g]	concentration in liver, Rat [2] [ng/g]	concentration in thymus, Rat [6] [ng/g]
1 h, Female, F344	1530	526	2600
1 h, Male, F344	1400	1620	3100
2 h, Female, F344	338	65.2	712
2 h, Male, F344	466	640	783
3 h, Female, F344	123	–	199
3 h, Male, F344	179	121	305
4 h, Female, F344	53.5	–	52.4
4 h, Male, F344	57.5	66.5	72.9
5 h, Female, F344	38.7	–	62.4
5 h, Male, F344	47.8	31.1	77.9
6 h, Female, F344	31.7	–	48.8
6 h, Male, F344	31.5	26.2	29.6
7 h, Female, F344	–	–	26.6
7 h, Male, F344	21.1	–	36
8 h, Female, F344	–	–	16.4
8 h, Female, Harlan Sprague-Dawley	13.3	–	18.1
10 min, Female, F344	11300	1570	33300
10 min, Male, F344	12200	3090	66700
20 min, Female, F344	6050	2310	22300
20 min, Male, F344	6780	2860	13900
40 min, Female, F344	4450	662	12400
40 min, Male, F344	7060	4290	7360

CCCCOC(=O)c1ccccc1C(=O)O [Mono-n-butyl phthalate]
Rat [1], dosed: Di-n-butyl phthalate, Male, Sprague-Dawley
Details	concentration in plasma [ng/mL]
0.25 h, 100 mg/kg, oral	26200
0.5 h, 50 mg/kg, oral	16600
0.5 h, 100 mg/kg, oral	40300
1 h, 20 mg/kg, iv	3060
1 h, 50 mg/kg, oral	5560
1 h, 100 mg/kg, oral	23500
1.5 h, 20 mg/kg, iv	517
2 h, 20 mg/kg, iv	945
2 h, 50 mg/kg, oral	2700
2 h, 100 mg/kg, oral	9480
2 h, 200 mg/kg, oral	114000
3 h, 20 mg/kg, iv	1380
3 h, 50 mg/kg, oral	2390
3 h, 100 mg/kg, oral	6880
4 h, 20 mg/kg, iv	667
4 h, 100 mg/kg, oral	10000
5 h, 20 mg/kg, iv	1120
5 min, 20 mg/kg, iv	29400
5 min, 50 mg/kg, oral	3240
5 min, 100 mg/kg, oral	6120
6 h, 20 mg/kg, iv	627
6 h, 50 mg/kg, oral	4090
6 h, 100 mg/kg, oral	7390
8 h, 20 mg/kg, iv	522
10 h, 50 mg/kg, oral	506
10 h, 100 mg/kg, oral	3970
10 min, 20 mg/kg, iv	31300
10 min, 50 mg/kg, oral	20500
15 h, 50 mg/kg, oral	629
15 h, 100 mg/kg, oral	538
20 h, 100 mg/kg, oral	492
20 h, 200 mg/kg, oral	1820
20 min, 20 mg/kg, iv	24200
20 min, 50 mg/kg, oral	13800
24 h, 100 mg/kg, oral	517
40 min, 20 mg/kg, iv	5840
40 min, 50 mg/kg, oral	12000
